From ChEMBL document CHEMBL1151176, “Isolation of nor-secofriedelanes from the sedative extracts of Galphimia glauca” (2004)

Legend:
Format in all cases: functional
Details in all cases: read-out: ED50 (the source's name)
HCT-15 = experiment: Cytotoxicity against human HCT15 cells
[1] = Cytotoxicity against human SQC1 cells
KB = experiment: Cytotoxicity against human KB cells
OVCAR = experiment: Cytotoxicity against human OVCAR cells

Measured: EC50

COC(=O)[C@@]12CC[C@@]3(C)[C@@H]4C=CC(=O)OC[C@]4([C@@H](C)O)[C@@H](O)[C@@H](O)[C@@H]3[C@@]1(C)CC[C@@]1(C)CC=C(C)C[C@]12O [GALPHIMINE A]
> 4 µg/mL: all assays above

COC(=O)[C@@]12CC[C@@]3(C)[C@@H]4C=CC(=O)OC[C@]4([C@@H](C)O)C[C@@H](O)[C@@H]3[C@@]1(C)CC[C@@]1(C)CC=C(C)C[C@]12O [GALPHIMINE B]
> 4 µg/mL: all assays above

COC(=O)[C@@]12CC[C@@]3(C)[C@@H]4C=CC(=O)OC[C@]4([C@@H](C)O)C[C@@H](O)[C@@H]3[C@@]1(C)CC[C@@]1(C)CCC(C)=C[C@]12O [GALPHIMINE C]
> 4 µg/mL: all assays above

COC(=O)[C@@]12CC[C@@]3(C)[C@@H]4C=CC(=O)OC[C@]4([C@H](C)O)[C@@H](O)[C@@H](OC(C)=O)[C@@H]3[C@@]1(C)CC[C@@]1(C)CC=C(C)C[C@]12O [GALPHIMINE D]
> 4 µg/mL: all assays above

COC(=O)[C@@]12CC[C@@]3(C)[C@@H]4C=CC(=O)OC[C@]4([C@@H](C)O)[C@@H](OC(C)=O)[C@@H](O)[C@@H]3[C@@]1(C)CC[C@@]1(C)CC=C(C)C[C@]12O [GALPHIMINE E]
> 4 µg/mL: all assays above

C=C1CC[C@]2(C)CC[C@]3(C)[C@H]4[C@H](O)C[C@@]5([C@@H](C)O)COC(=O)C=C[C@H]5[C@]4(C)CC[C@@]3(C(=O)OC)[C@]2(O)C1 [GALPHIMINE F]
> 4 µg/mL: all assays above

C=C1CC[C@]2(C)CC[C@]3(C)[C@H]4[C@H](O)[C@H](OC(C)=O)[C@@]5([C@@H](C)O)COC(=O)C=C[C@H]5[C@]4(C)CC[C@@]3(C(=O)OC)[C@]2(O)C1 [GALPHIMINE G]
> 4 µg/mL: all assays above

C=C1CC[C@]2(C)CC[C@]3(C)[C@H]4[C@H](O)[C@H](O)[C@@]5([C@H](C)O)COC(=O)C=C[C@H]5[C@]4(C)CC[C@@]3(C(=O)OC)[C@]2(O)C1 [GALPHIMINE H]
> 4 µg/mL: all assays above

C=C1CC[C@]2(C)CC[C@]3(C)[C@H]4[C@H](OC(C)=O)[C@H](O)[C@@]5([C@H](C)O)COC(=O)C=C[C@H]5[C@]4(C)CC[C@@]3(C(=O)OC)[C@]2(O)C1 [GALPHIMINE I]
> 4 µg/mL: all assays above
